Results on two compounds are retold here after BindingDB's records for patent US11485738 (MIRATI THERAPEUTICS, INC., 2022).

Each structure is given as a SMILES string.

The target in the experiment is Histone-binding protein RBBP4/Polycomb protein EED/Polycomb protein SUZ12/Zinc finger protein AEBP2 (Human, UniProt O75530+Q09028+Q15022+Q6ZN18). Description: Enzymatic Activity Assay.
Histone-binding protein RBBP4/Polycomb protein EED/Polycomb protein SUZ12/Zinc finger protein AEBP2, sequence (O75530 whole entry): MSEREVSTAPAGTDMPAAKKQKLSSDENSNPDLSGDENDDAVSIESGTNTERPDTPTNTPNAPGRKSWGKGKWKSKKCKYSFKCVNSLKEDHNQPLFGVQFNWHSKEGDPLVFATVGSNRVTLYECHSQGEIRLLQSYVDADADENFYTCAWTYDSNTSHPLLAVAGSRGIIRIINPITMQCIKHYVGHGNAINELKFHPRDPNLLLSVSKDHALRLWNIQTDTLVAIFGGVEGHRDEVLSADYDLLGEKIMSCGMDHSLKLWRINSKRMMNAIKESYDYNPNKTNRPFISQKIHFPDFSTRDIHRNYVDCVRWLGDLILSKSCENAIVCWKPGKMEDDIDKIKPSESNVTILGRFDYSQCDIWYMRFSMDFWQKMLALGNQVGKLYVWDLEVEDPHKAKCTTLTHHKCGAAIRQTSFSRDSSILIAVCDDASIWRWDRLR
Histone-binding protein RBBP4/Polycomb protein EED/Polycomb protein SUZ12/Zinc finger protein AEBP2, sequence (Q15022 whole entry): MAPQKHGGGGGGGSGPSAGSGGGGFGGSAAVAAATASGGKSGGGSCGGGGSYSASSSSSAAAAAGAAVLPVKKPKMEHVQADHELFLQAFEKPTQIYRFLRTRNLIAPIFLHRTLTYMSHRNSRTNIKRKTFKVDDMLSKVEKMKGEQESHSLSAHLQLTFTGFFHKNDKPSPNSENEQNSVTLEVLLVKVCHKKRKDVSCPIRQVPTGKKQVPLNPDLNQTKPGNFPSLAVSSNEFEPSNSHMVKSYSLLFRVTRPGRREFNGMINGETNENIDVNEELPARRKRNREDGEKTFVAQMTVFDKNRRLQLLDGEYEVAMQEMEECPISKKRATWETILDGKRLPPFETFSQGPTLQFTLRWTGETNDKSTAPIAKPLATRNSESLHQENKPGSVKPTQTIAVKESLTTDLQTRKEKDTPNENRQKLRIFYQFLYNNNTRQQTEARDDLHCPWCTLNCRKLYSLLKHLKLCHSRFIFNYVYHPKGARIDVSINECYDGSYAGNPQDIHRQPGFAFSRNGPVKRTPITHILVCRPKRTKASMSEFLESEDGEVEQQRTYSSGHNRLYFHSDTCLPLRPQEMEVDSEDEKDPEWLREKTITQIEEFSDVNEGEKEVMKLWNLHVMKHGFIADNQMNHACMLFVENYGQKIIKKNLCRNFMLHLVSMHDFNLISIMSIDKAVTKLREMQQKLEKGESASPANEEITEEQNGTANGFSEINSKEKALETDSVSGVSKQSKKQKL
Histone-binding protein RBBP4/Polycomb protein EED/Polycomb protein SUZ12/Zinc finger protein AEBP2, sequence (Q6ZN18 whole entry): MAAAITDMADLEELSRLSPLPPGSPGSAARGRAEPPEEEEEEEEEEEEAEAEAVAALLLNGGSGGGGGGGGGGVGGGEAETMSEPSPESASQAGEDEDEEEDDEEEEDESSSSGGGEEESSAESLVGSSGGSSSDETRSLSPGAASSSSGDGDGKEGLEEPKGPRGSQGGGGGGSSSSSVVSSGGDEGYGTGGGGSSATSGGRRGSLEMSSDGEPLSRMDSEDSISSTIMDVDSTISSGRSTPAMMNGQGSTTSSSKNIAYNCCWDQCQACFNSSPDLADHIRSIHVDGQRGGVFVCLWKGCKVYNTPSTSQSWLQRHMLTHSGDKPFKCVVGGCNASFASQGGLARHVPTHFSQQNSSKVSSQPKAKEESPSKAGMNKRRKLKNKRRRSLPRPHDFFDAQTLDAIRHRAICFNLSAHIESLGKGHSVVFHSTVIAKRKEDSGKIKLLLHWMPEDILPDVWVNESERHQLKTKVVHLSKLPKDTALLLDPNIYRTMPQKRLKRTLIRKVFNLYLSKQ
Histone-binding protein RBBP4/Polycomb protein EED/Polycomb protein SUZ12/Zinc finger protein AEBP2, sequence (Q09028 whole entry): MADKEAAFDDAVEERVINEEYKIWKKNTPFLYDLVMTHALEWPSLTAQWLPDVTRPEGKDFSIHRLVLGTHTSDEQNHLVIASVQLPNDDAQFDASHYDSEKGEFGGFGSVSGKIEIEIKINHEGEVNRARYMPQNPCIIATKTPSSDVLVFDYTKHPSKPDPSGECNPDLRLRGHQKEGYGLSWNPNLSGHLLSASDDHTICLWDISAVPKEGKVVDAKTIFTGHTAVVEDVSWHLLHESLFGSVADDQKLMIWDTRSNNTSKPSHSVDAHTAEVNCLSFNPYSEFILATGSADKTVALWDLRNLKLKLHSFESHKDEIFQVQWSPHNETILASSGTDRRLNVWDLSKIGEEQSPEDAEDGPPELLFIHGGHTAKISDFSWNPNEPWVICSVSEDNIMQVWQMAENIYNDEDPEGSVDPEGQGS

Method: An aliquot of each serial dilution of test compound was added to deep 384 well plate using Acoustic Technology instrument (Echo 550, LabCyte) containing reaction buffer (50 mM Tris-HCl (pH 8), 0.01% Brij35, 1 mM EDTA, 1 mM DTT, 1 mM PMSF and 1% DMSO), 10 nM purified PRC2 complex and 0.05 mg/ml core histone H3 in a 5 μl volume. The reaction was mixed gently and then pre-incubated for 20 min at 30° C. The enzymatic reaction was initiated by adding 1 uM S-Adenosyl-L-[methyl-3H]methionine and incubated for 1 hr at 30° C. After 1 hr, the reaction product was detected using a filter binding method and the amount of tritiated H3 core histone was quantitated using a scintillation counter.

One may read the IC50 as the concentration that inhibits the measured activity by half. On to `Cc1nc(N2CCOCC2)ccc1-c1cnc(NCc2c(F)ccc3c2CCO3)n2cc(C#N)nc12` [US11485738, Example 56], for which the 50% inhibitory concentration (IC50) was < 100 nM.

Take `Cc1cc(S(C)(=O)=O)ccc1-c1cnc(NCc2c(F)ccc3c2CCO3)n2cc(C#N)nc12` [US11485738, Example 87]: the IC50 was < 100 nM.
